pIC50: −log10 of the molar value. Calls of active or inactive are those of the source. The rule behind the calls is not given here.
Tests used:
[1] = test system: Mus musculus; experiment: Toxicity in Nu/Nu intratumorally dosed mouse xenografted with human […] cells assessed as effect on body weight administered as single dose starting from day 18 post tumor injection and measured for 50 days post dose; assay type: organism-based; settings: in vivo, other, 1200 h
[2] = molecular target: Streptavidin (Streptomyces avidinii) (UniProt P22629); experiment: Binding affinity to Streptomyces avidinii streptavidin assessed as reduction in biotinylated-alkaline phosphatase (unknown origin) binding at 1 to 1000 uM by ELISA
Streptavidin (Streptomyces avidinii), sequence (P22629 whole entry): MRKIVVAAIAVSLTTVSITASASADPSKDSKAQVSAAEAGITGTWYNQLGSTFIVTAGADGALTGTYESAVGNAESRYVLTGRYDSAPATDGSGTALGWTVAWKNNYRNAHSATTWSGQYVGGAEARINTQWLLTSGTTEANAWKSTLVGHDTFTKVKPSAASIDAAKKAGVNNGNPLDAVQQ

[3] = test system: SK-OV-3; experiment: Antitumor activity against human SKOV3 cells xenografted in intratumorally dosed Nu/Nu mouse assessed as inhibition of tumor volume administered as single dose and monitored for 2 weeks starting from day 18 post tumor injection and measured after 32 days post dose; assay type: functional
[4] = test system: Mus musculus; experiment: Toxicity in Nu/Nu intratumorally dosed mouse xenografted with human […] cells assessed as effect on body weight administered as single dose starting from day 18 post tumor injection and measured for 50 days post dose using avidinOX conjugated compound; assay type: organism-based; settings: in vivo, other, 1200 h
[5] = test system: A-431; experiment: Antiproliferative activity against human A431 cells; assay type: functional, cell-based
[6] = test system: SK-OV-3; experiment: Antitumor activity against human SKOV3 cells xenografted in intratumorally dosed Nu/Nu mouse assessed as inhibition of tumor volume administered as single dose and monitored for 2 weeks starting from day 18 post tumor injection and measured after 32 days post dose using avidinOX conjugated compound; assay type: functional

CC[C@@]1(OC(=O)OCCSSCCNC(=O)CCCC[C@@H]2SC[C@@H]3NC(=O)N[C@@H]32)C(=O)OCc2c1cc1n(c2=O)Cc2c-1nc1ccccc1c2/C=N/OC(C)(C)C
Activity [1]: Non-Toxic
Activity [2]: Active
TGI [3]: 48%
Activity [4]: Non-Toxic
pIC50 [5]: 8.04
TGI [6]: 68%

From ChEMBL document CHEMBL4261596, “Growth inhibition of human ovarian carcinoma by a novel AvidinOX-anchored biotinylated camptothecin derivative” (Bioorg Med Chem Lett, 2018)
